Source: patent publication US5488060A, “Substituted thiadiazoles, compositions containing them and their use as antimicrobial and marine antifouling agents” (The Dow Chemical Company, priority 1994, dated 1996)
≈ marks a conversion by molar mass, not a printed value. Where two headings read alike, the source gives them in different places.

Tests used:
Type in all cases: cell-based
[1] = system: Penicillium chrysogenum (Pc); experiment: Minimum inhibitory concentration (MIC) in malt yeast agar, Penicillium chrysogenum; conditions: pH 5.5; malt yeast agar, 30° C., 72 hours for fungi; read-out: Minimum Inhibitory Concentration, PC
Method: (§1) The antimicrobial activity of the compounds of the present invention is set forth as the minimum inhibitory concentration (MIC) for the active compounds and is determined for nine (9) bacteria, using nutrient agar, and seven (7) yeast and fungi, using malt yeast agar. This determination is conducted using a one percent solution of the test compound prepared in a mixture of acetone and water.
(§2) Malt yeast agar is prepared at pH 5.5 by adding 3 g yeast extract and 45 g malt agar per liter of deionized water. The specific agar is dispensed in 30 mL aliquots into 25×200 mm test tubes, capped and autoclaved for 15 minutes at 115° C.
(§3) The test tubes containing the agar are cooled in a water bath until the temperature of the agar is 48° C. Then, an appropriate amount of the one percent solution of the test compound is added (except in the controls where no compound is added) to the respective test tubes so that the final concentrations are 500, […], 100, 50, 25, 10, 5, 2.5, 1.0 and zero parts per million of the test compound in the agar, thus having a known concentration of test compound dispersed therein. The contents of the test tubes are then transferred to respective petri plates. After drying for 24 hours, the petri plates containing nutrient agar are inoculated with bacteria and those containing malt yeast agar are inoculated with yeast and fungi.
(§4) The inoculation with the yeast and fungi is accomplished as follows. Cultures of yeast and fungi are incubated for seven days on malt yeast agar at 30° C. These cultures are used to prepare suspensions by the following procedure. A suspension of each organism is prepared by adding 10 mL of sterile saline and 10 microliters of octylphenoxy polyethoxy ethanol to the agar slant of yeast or fungi. The sterile saline/octylphenoxy potyethoxy ethanol solution is then agitated with a sterile swab to suspend the microorganism grown on the slant. Each resulting suspension is diluted into sterile saline (1 part suspension: 9 parts sterile saline). Aliquots of these dilutions are placed in individual wells of Steer's Replicator and petri plates inoculated as previously described. The petri plates are incubated at 30° C. and read after 48 hours for yeast and 72 hours for fungi.

[2] = system: Salmonella choleraesuis (Se); experiment: Minimum inhibitory concentration (MIC) in nutrient agar, Salmonella choleraesuis; conditions: Salmonella enterica
Method: as §1
(§5) Nutrient agar is prepared at pH 6.8, representing a neutral medium, and at pH 8.2, representing an alkaline medium. The nutrient agars are prepared by adding 23 g of nutrient agar to one-liter of deionized water. In addition, the alkaline medium is prepared by adjusting a 0.04M solution of N-[tris-(hydroxymethyl)methyl]glycine buffered deionized water with concentrated sodium hydroxide to a pH of 8.5.
as §3
(§6) The inoculation with bacteria is accomplished by using the following procedure. Twenty-four hour-cultures of each of the bacteria are prepared by incubating the respective bacteria in tubes containing nutrient broth for 24 hours at 30° C. in a shaker. Dilutions of each of the 24 hour-cultures are made so that nine separate suspensions (one for each of the nine test bacteria) are made, each containing 10^8 colony forming units (CFU) per mL of suspension of a particular bacteria. Aliquots of 0.3 mL of each of the bacterial suspensions are used to fill the individual wells of Steer's Replicator. For each microbial suspension, 0.3 mL was used to fill three wells (i.e., three wells of 0.3 mL each) so that for the nine different bacteria, 27 wells are filled. The Steer's Replicator is then used to inoculate both the neutral and alkaline pH nutrient agar petri plates.
(§7) The inoculated petri plates are incubated at 30° C. for 48 hours and then read to determine if the test compound which is incorporated into the agar prevented growth of the respective bacteria.

Escherichia coli (Ec) = experiment: Minimum inhibitory concentration (MIC) in nutrient agar, Escherichia coli
Method: as §1, §5, §3, §6, §7

[3] = system: Pseudomonas aeruginosa (Pa); experiment: Minimum inhibitory concentration (MIC) in nutrient agar, Pseudomonas aeruginosa; conditions: 30° C., 48 hours, read-out: Minimum Inhibitory Concentration, Pa
Method: as §1, §5, §3, §6, §7

Trichoderma viride (Tv) = experiment: Minimum inhibitory concentration (MIC) in malt yeast agar, Trichoderma viride
Method: as §1, §2, §3, §4

[4] = system: Aureobasidium pullulan (Ap); experiment: Minimum inhibitory concentration (MIC) in malt yeast agar, Aureobasidium pullulan; conditions: pH 5.5; malt yeast agar, 30° C.; read-out: Minimum Inhibitory Concentration, Ap
Method: as §1, §2, §3, §4

[5] = system: Staphylococcus aureus (Sa); experiment: Minimum inhibitory concentration (MIC) in nutrient agar, Staphylococcus aureus
Method: as §1, §5, §3, §6, §7

Proteus vulgaris (Pv) = experiment: Minimum inhibitory concentration (MIC) in nutrient agar, Proteus vulgaris; conditions: 48 h
Method: as §1, §5, §3, §6, §7

Bacillus subtilis (Bs) = experiment: Minimum inhibitory concentration (MIC) in nutrient agar, Bacillus subtilis
Method: as §1, §5, §3, §6, §7

[6] = system: Pseudomonas aeruginosa (PRD-10); experiment: Minimum inhibitory concentration (MIC) in nutrient agar, Pseudomonas aeruginosa PRD-10
Method: as §1, §5, §3, §6, §7

Fusarium oxysporum (Fo) = experiment: Minimum inhibitory concentration (MIC) in malt yeast agar, Fusarium oxysporum
Method: as §1, §2, §3, §4

Aspergillus niger (An) = experiment: Minimum inhibitory concentration (MIC) in malt yeast agar, Aspergillus niger; conditions: pH 5.5; malt yeast agar, 30° C., 72 hours for fungi; read-out: Minimum Inhibitory Concentration, An
Method: as §1, §2, §3, §4

[7] = system: Saccharomyces cerevisiae (Sc); experiment: Minimum inhibitory concentration (MIC) in malt yeast agar, Saccharomyces cerevisiae; conditions: pH 5.5, malt yeast agar, 30° C., 48 hours for yeast, read-out: Minimum Inhibitory Concentration, SC
Method: as §1, §2, §3, §4

[8] = system: Klebsiella pneumoniae (Kp); experiment: Minimum inhibitory concentration (MIC) in nutrient agar, Klebsiella pneumoniae
Method: as §1, §5, §3, §6, §7

[9] = system: Enterobacter aerogenes (Ea); experiment: Minimum inhibitory concentration (MIC) in nutrient agar, Enterobacter aerogenes; conditions: Klebsiella aerogenes, 48 h
Method: as §1, §5, §3, §6, §7

Candida albicans (Ca) = experiment: Minimum inhibitory concentration (MIC) in malt yeast agar, Candida albicans
Method: as §1, §2, §3, §4

[10] = 48 h, pH 6.8, read-out: Minimum Inhibitory Concentration, SC
[11] = 48 h, pH 6.8, read-out: Minimum Inhibitory Concentration, Ec
[12] = 48 h, pH 8.2, read-out: Minimum Inhibitory Concentration, Ec
[13] = pH 6.8, nutrient agar, 30° C., 48 hours, read-out: Minimum Inhibitory Concentration, Sa
[14] = pH 8.2, nutrient agar, 30° C., 48 hours, read-out: Minimum Inhibitory Concentration, Sa
[15] = pH 6.8, read-out: Minimum Inhibitory Concentration, Pv
[16] = pH 8.2, read-out: Minimum Inhibitory Concentration, Pv
[17] = 48 h, pH 8.2, read-out: Minimum Inhibitory Concentration, Bs
[18] = pH 6.8, nutrient agar, 30° C., 48 hours, read-out: Minimum Inhibitory Concentration, Bs
[19] = 48 h, pH 8.2, read-out: Minimum Inhibitory Concentration, PRD
[20] = 72 h, pH 5.5, read-out: Minimum Inhibitory Concentration, Fo
[21] = 48 h, pH 8.2, read-out: Minimum Inhibitory Concentration, Kp
[22] = pH 6.8, nutrient agar, 30° C., 48 hours, read-out: Minimum Inhibitory Concentration, Kp
[23] = pH 6.8, read-out: Minimum Inhibitory Concentration, Ea
[24] = pH 8.2, read-out: Minimum Inhibitory Concentration, Ea
[25] = 48 h, pH 5.5, read-out: Minimum Inhibitory Concentration, Ca
[26] = 48 h, pH 8.2, read-out: Minimum Inhibitory Concentration, SC
[27] = pH 5.5, malt yeast agar, 30° C., 72 hours for fungi, read-out: Minimum Inhibitory Concentration, Tv
[28] = 48 h, pH 6.8, read-out: Minimum Inhibitory Concentration, PRD

| SMILES | MIC [1] [µg/mL] | MIC [2, 10] [µg/mL] | MIC (Escherichia coli (Ec); [11]) [µg/mL] | MIC (Escherichia coli (Ec); [12]) [µg/mL] | MIC ([3]; pH 6.8, nutrient agar) [µg/mL] | MIC ([3]; pH 8.2, nutrient agar) [µg/mL] | MIC [4] [µg/mL] | MIC [5, 13] [µg/mL] | MIC [5, 14] [µg/mL] | MIC (Proteus vulgaris (Pv); [15]) [µg/mL] | MIC (Proteus vulgaris (Pv); [16]) [µg/mL] | MIC (Bacillus subtilis (Bs); [17]) [µg/mL] | MIC (Bacillus subtilis (Bs); [18]) [µg/mL] | MIC [6, 19] [µg/mL] | MIC (Aspergillus niger (An)) [µg/mL] | MIC [7] [µg/mL] | MIC [8, 21] [µg/mL] | MIC [8, 22] [µg/mL] | MIC [9, 23] [µg/mL] | MIC [9, 24] [µg/mL] | further results |
| --- | --- | --- | --- | --- | --- | --- | --- | --- | --- | --- | --- | --- | --- | --- | --- | --- | --- | --- | --- | --- | --- |
| Cc1ccc(-c2nsnc2SCSC#N)cc1 [Example XXVII, 4-(4-Methylphenyl)-3-thiocyanatomethylthio-1,2,5-thiadiazole] | 9 (≈ 32.2 µM) | 500 (≈ 1790 µM) | 500 (≈ 1790 µM) | 500 (≈ 1790 µM) | 500 (≈ 1790 µM) | 500 (≈ 1790 µM) | 9 (≈ 32.2 µM) | 250 (≈ 895 µM) | 25 (≈ 89.5 µM) | 500 (≈ 1790 µM) | 500 (≈ 1790 µM) | 25 (≈ 89.5 µM) | 25 (≈ 89.5 µM) | 500 (≈ 1790 µM) | 9 (≈ 32.2 µM) | 9 (≈ 32.2 µM) | 500 (≈ 1790 µM) | 500 (≈ 1790 µM) | 500 (≈ 1790 µM) | 500 (≈ 1790 µM) | MIC ([2]; pH 8.2, nutrient agar, 30° C., 48 hours, read-out: Minimum Inhibitory Concentration, SC): 250 µg/mL (≈ 895 µM); MIC (Trichoderma viride (Tv); 72 h, pH 5.5, read-out: Minimum Inhibitory Concentration, Tv): 100 µg/mL (≈ 358 µM); MIC ([6]; pH 6.8, nutrient agar, 30° C., 48 hours, read-out: Minimum Inhibitory Concentration, PRD): 250 µg/mL (≈ 895 µM); MIC (Fusarium oxysporum (Fo); [20]): 25 µg/mL (≈ 89.5 µM); MIC (Candida albicans (Ca); [25]): 50 µg/mL (≈ 179 µM) |
| N#CSCSc1nsnc1-c1ccccc1Cl [Example XX, 4-(2-Chlorophenyl)-3-thiocyanatomethylthio-1,2,5-thiadiazole] | 9 (≈ 30 µM) | 500 (≈ 1670 µM) | 500 (≈ 1670 µM) |  | 500 (≈ 1670 µM) | > 500 | 9 (≈ 30 µM) | 9 (≈ 30 µM) | 9 (≈ 30 µM) | 500 (≈ 1670 µM) | > 500 |  | 9 (≈ 30 µM) | > 500 | 9 (≈ 30 µM) | 9 (≈ 30 µM) | > 500 | 500 (≈ 1670 µM) | 500 (≈ 1670 µM) | > 500 | MIC [2, 26]: > 500 µg/mL; MIC (Escherichia coli (Ec); pH 8.2, nutrient agar, 30° C., 48 hours, read-out: Minimum Inhibitory Concentration, Ec): 250 µg/mL (≈ 834 µM); MIC (Trichoderma viride (Tv); [27]): > 500 µg/mL; MIC (Bacillus subtilis (Bs); pH 8.2, nutrient agar, 30° C., 48 hours, read-out: Minimum Inhibitory Concentration, Bs): 9 µg/mL (≈ 30 µM); MIC [6, 28]: 500 µg/mL (≈ 1670 µM); MIC (Fusarium oxysporum (Fo); [20]): 25 µg/mL (≈ 83.4 µM); MIC (Candida albicans (Ca); [25]): 250 µg/mL (≈ 834 µM) |
| N#CSCSc1nsnc1-c1ccc([N+](=O)[O-])cc1 [Example XXIX, 4-(4-Nitrophenyl)-3-thiocyanatomethylthio-1,2,5-thiadiazole] | 9 (≈ 29 µM) | 500 (≈ 1610 µM) | 500 (≈ 1610 µM) | 500 (≈ 1610 µM) | 500 (≈ 1610 µM) | > 500 | > 500 | 500 (≈ 1610 µM) |  | 500 (≈ 1610 µM) | > 500 | 500 (≈ 1610 µM) | 50 (≈ 161 µM) | > 500 | 9 (≈ 29 µM) | 9 (≈ 29 µM) | > 500 | 500 (≈ 1610 µM) | 500 (≈ 1610 µM) | > 500 | MIC [2, 26]: > 500 µg/mL; MIC (Trichoderma viride (Tv); [27]): 9 µg/mL (≈ 29 µM); MIC ([5]; 48 h, pH 8.2, read-out: Minimum Inhibitory Concentration, Sa): 500 µg/mL (≈ 1610 µM); MIC [6, 28]: 500 µg/mL (≈ 1610 µM); MIC (Fusarium oxysporum (Fo); pH 5.5, malt yeast agar, 30° C., 72 hours for fungi, read-out: Minimum Inhibitory Concentration, Fo): 9 µg/mL (≈ 29 µM); MIC (Candida albicans (Ca); pH 5.5, malt yeast agar, 30° C., 48 hours for yeast, read-out: Minimum Inhibitory Concentration, Ca): 9 µg/mL (≈ 29 µM) |
